Reference: patent publication US5945421A, “Dopamine D4 receptor antagonists” (Warner-Lambert Company, priority 1997, dated 1999)
Like-named read-outs stand apart in the source and are kept apart here.

Tests used:
[1] = molecular target: T1, human recombinant dopamine D4.2 receptor (Homo sapiens, UniProt P21917, DEL265-296); assay: Receptor binding assay, D4.2 dopamine receptor ([3H]spiperone competition, CHO K1 cell membranes)
T1 construct: expressed in transfected cells; host or cells: CHO K1
T1 sequence (P21917 with tags, fused parts or gaps DEL265-296): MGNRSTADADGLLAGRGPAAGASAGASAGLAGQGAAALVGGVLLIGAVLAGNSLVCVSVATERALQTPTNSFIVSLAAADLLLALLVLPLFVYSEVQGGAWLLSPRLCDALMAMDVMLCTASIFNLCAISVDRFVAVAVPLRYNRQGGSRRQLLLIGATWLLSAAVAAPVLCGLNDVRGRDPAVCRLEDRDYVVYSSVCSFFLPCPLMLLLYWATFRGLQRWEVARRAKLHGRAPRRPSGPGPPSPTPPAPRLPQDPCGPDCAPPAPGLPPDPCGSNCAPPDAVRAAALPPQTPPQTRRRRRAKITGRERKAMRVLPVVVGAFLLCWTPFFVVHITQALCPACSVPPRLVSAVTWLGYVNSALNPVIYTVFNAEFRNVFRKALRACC
Source text: (§1) A cell line expressing human dopamine D2 (Long form) receptors was purchased from Oregon Health Sciences University, Portland, Oreg. The D2 receptor cDNA was subcloned into an expression vector, pRc/CMV. The plasmids were transfected by electroporation into CHO K1 cells. A single stable transfectant, resistant to the antibiotic G418, was isolated and selected for use in the binding studies. For D4 binding, CHO K1 cells stably transfected to express the human recombinant dopamine D4.2 receptor subtype, as described by Shih, et al., "The expression and functional characterization of human dopamine D4.2 receptor in CHO K1 cells," Soc. Neurosci., 21(Part 1):621 (1995).
(§2) CHO K1 cells expressing either human D2 and D4.2 receptors were grown in 162 cm^2 culture flasks in F12 medium (Gibco Laboratories, Grand Island, N.Y.) supplemented with 10% fetal bovine serum (FBS, Hyclone, Logan, Utah) in an atmosphere of 5% CO2 /95% air at 37° C. Cells were grown until confluent, after which growth medium was removed and replaced with 0.02% ethylene diamine tetracetate (EDTA) in a phosphate-buffered saline solution (Sigma Chemical Co., St. Louis, Mo.) and scraped from the flasks. The cells were centrifuged at about 1000×g for 10 minutes at 40° C. and then resuspended in TEM buffer (25 mM Tris-HCL, pH 7.4, 5 mM EDTA, and 6 mM MgCl2) for D2 or the D4.2 buffer (50 mM Tris-HCl, pH 7.4, 5 mM EDTA, 1.5 mM CaCl2, 5 mM KCl, and 120 mM NaCl) and homogenized. The membranes were pelleted by centrifugation at 20,000×g at 40° C. for 20 minutes. Then the pellets were resuspended in appropriate buffer at 1 mL/flask and stored at -70° C. until used in the receptor binding assay.
(§3) After 60 minutes incubation at 25° C., the incubations were terminated by rapid filtration through Whatmann GF/B glass fibre filters (soaked for 1 hour in 0.5% polyethylenimine) on a -cell harvester, with three washes of 1 mL ice-cold buffer. Individual filter disks containing the bound ligand were placed in counting vials with 4 mL of scintillation fluid (Ready Gel, Beckman Instrument Inc., Fullerton, Calif.) and then counted in a Beckman LS-6800 liquid scintillation counter at an efficiency of 45%. Nonspecific binding was defined in presence of 1 mM of haloperidol.
(§4) Saturation and competition binding data were analyzed using an iterative nonlinear least-square curve-fitting Ligand program. In competition experiments, apparent Ki values were calculated from IC50 values by method of Cheng and Prusoff, "Relationship between the inhibition constant (Ki) and the concentration of inhibitor which causes 50% inhibition (IC50) of an enzymatic reaction," Biochem. Pharmacol., 22:3099-3108 (1973). Experimental compounds were made up as stock solutions in dimethyl sulfoxide (DMSO). […] Each observation was carried out in triplicate. To allow these calculations, Kd values were measured for the interaction of various ligands with the receptor. […]

[2] = molecular target: human dopamine D2 (Long form) receptors (Homo sapiens, UniProt P14416); assay: biochemical; assay type: binding; details: 0.2 nM [3H]spiperone, CHO K1 membranes, 60 min, 25° C.; apparent Ki from IC50 (Cheng-Prusoff)
Sequence of human dopamine D2 (Long form) receptors (P14416 whole entry): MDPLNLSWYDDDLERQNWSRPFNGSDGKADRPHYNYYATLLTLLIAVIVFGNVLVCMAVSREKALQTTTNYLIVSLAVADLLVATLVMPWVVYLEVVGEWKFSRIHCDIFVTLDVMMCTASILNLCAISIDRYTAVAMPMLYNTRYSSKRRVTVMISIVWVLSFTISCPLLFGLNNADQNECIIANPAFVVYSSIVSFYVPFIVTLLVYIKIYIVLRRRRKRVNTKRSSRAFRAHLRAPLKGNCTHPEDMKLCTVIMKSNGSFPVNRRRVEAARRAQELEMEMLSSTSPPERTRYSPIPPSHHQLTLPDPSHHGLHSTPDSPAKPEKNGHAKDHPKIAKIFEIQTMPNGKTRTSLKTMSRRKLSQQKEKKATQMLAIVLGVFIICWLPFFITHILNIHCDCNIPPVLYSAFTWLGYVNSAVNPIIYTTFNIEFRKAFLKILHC
Source text: as §1, §2, §3, §4

[3] = 0.2 nM [3H]spiperone, CHO K1 membranes, 60 min, 25° C., apparent Ki from IC50 (Cheng-Prusoff), read-out: D4 Ki

Structure (SMILES)	Ki [1, 3]	Ki [2]	Ki [1]
Clc1cccc(N2CCN(Cc3ccc4ccccc4n3)CC2)c1Cl [2-[4-(2,3-Dichloro-phenyl)-piperazin-1-ylmethyl]-quinoline]	59.5 nM	–	–
Clc1cc(Cl)cc(N2CCN(Cc3ccc4ccccc4n3)CC2)c1 [2-[4-(3,5-Dichloro-phenyl)-piperazin-1-ylmethyl]-quinoline]	121 nM	–	–
CCCc1cccc(N2CCN(Cc3ccc4ccccc4n3)CC2)c1 [2-[4-(3-Propyl-phenyl)-piperazin-1-ylmethyl]-quinoline]	57 nM	5810 nM	–
FC(F)(F)c1cc(N2CCN(Cc3ccc4ccccc4n3)CC2)ccc1Cl [2-[4-(4-Chloro-3-trifluoromethyl-phenyl)-piperazin-1-ylmethyl]-quinoline]	122 nM	–	–
Fc1ccc(C2=CCN(Cc3ccc4ccccc4n3)CC2)cc1 [2-[4-(4-Fluoro-phenyl)-3,6-dihydro-2H-pyridin-1-ylmethyl]-quinoline]	–	254 nM	14.4 nM
N#Cc1ccc(N2CCN(Cc3ccc4ccccc4n3)CC2)cc1Cl [2-chloro-4-(4-quinolin-2-ylmethyl-piperazin-1-yl)-benzonitrile]	–	–	101 nM
c1ccc(N2CCN(Cc3cnc4ccccc4c3)CC2)cc1 [3-(4-Phenyl-piperazin-1-ylmethyl)-quinoline]	16 nM	1790 nM	–
Cc1ccc(N2CCN(Cc3cnc4ccccc4c3)CC2)cc1 [3-(4-p-Tolyl-piperazin-1-ylmethyl)-quinoline]	21 nM	2160 nM	–
Fc1ccccc1N1CCN(Cc2cnc3ccccc3c2)CC1 [3-[4-(2-Fluoro-phenyl)-piperazin-1-ylmethyl]-quinoline]	29 nM	512 nM	–
c1ccc(N2CCN(Cc3ccc4ncccc4c3)CC2)cc1 [6-(4-Phenyl-piperazin-1-ylmethyl)-quinoline]	26 nM	1380 nM	–
OCc1ccc(N2CCN(Cc3ccc4ccccc4n3)CC2)cc1Br [[2-Bromo-4-(4-quinolin-2-ylmethyl-piperazin-1-yl)-phenyl]-methanol]	36 nM	> 5880 nM	–
OCc1ccc(N2CCN(Cc3cnc4ccccc4c3)CC2)cc1Br [[2-Bromo-4-(4-quinolin-3-ylmethyl-piperazin-1-yl)-phenyl]-methanol]	13.5 nM	> 5880 nM	–
OCc1ccc(N2CCN(Cc3ccc4ccccc4n3)CC2)cc1Cl [[2-Chloro-4-(4-quinolin-2-ylmethyl-piperazin-1-yl)-phenyl]-methanol]	8.27 nM	> 10000 nM	–
OCc1ccc(N2CCN(Cc3ccc4ccccc4n3)CC2)cc1F [[2-Fluoro-4-(4-quinolin-2-ylmethyl-piperazin-1-yl)-phenyl]-methanol]	87 nM	–	–
OCc1ccc(N2CCN(Cc3cnc4ccccc4c3)CC2)cc1F [[2-Fluoro-4-(4-quinolin-3-ylmethyl-piperazin-1-yl)-phenyl]-methanol]	8.8 nM	> 5880 nM	–

More lines, main results first:

Ki [1, 3]	Ki [2]	Structure (SMILES)	Ki [1]
127 nM	–	Cc1cccc(N2CCN(Cc3ccc4ccccc4n3)CC2)c1 [2-(4-m-Tolyl-piperazin-1-ylmethyl)-quinoline]	–
1.55 nM	2850 nM	Cc1ccc(N2CCN(Cc3ccc4ccccc4n3)CC2)cc1 [2-(4-p-Tolyl-piperazin-1-ylmethyl)-quinoline]	–
87 nM	–	O=Cc1ccc(N2CCN(Cc3ccc4ccccc4n3)CC2)cc1Cl [2-Chloro-4-(4-quinolin-2-ylmethyl-piperazin-1-yl)-benzaldehyde]	–
61 nM	> 5880 nM	Clc1ccc(N2CCN(Cc3ccc4ccccc4n3)CC2)cc1Cl [2-[4-(3,4-Dichloro-phenyl)-piperazin-1-ylmethyl]-quinoline]	–
13 nM	> 5880 nM	Cc1ccc(N2CCN(Cc3ccc4ccccc4n3)CC2)cc1C [2-[4-(3,4-Dimethyl-phenyl)-piperazin-1-ylmethyl]-quinoline]	–
46 nM	–	Brc1cccc(N2CCN(Cc3ccc4ccccc4n3)CC2)c1 [2-[4-(3-Bromo-phenyl)-piperazin-1-ylmethyl]-quinoline]	–
31.5 nM	> 5880 nM	COCc1ccc(N2CCN(Cc3ccc4ccccc4n3)CC2)cc1Cl [2-[4-(3-Chloro-4-methoxymethyl-phenyl)-piperazin-1-ylmethyl]-quinoline]	–
36 nM	> 5880 nM	Cc1ccc(N2CCN(Cc3ccc4ccccc4n3)CC2)cc1Cl [2-[4-(3-Chloro-4-methyl-phenyl)-piperazin-1-ylmethyl]-quinoline]	–
2.72 nM	> 5880 nM	Clc1cccc(N2CCN(Cc3ccc4ccccc4n3)CC2)c1 [2-[4-(3-Chloro-phenyl)-piperazin-1-ylmethyl]-quinoline]	–
101 nM	–	COc1ccc(N2CCN(Cc3ccc4ccccc4n3)CC2)cc1 [2-[4-(4-Methoxy-phenyl)-piperazin-1-ylmethyl]-quinoline]	–
139 nM	> 5880 nM	OCc1ccc(N2CCN(Cc3ccc4ccccc4n3)CC2)cc1 [[4-(4-Quinolin-2-ylmethyl-piperazin-1-yl)-phenyl]-methanol]	–
